Values joined by “and” are separate entries in the source; they are usually repeats but may differ in a detail not shown here. Equal entries are not always repeated. Where two headings read alike, the source gives them in different places.
What was measured:
[1] = test system: phagocytosis by peritoneal macrophages of mice; format: cell-based; conditions: for % phagocytosis with respect to controls (= 100%): 80 min
Procedure: The macrophages the proliferation of which in the animal has been previously stimulated in vivo by an intraperitoneal injection of proteose-peptone (Difco) are collected or gathered in a sterile manner by washing the peritoneal cavity. They are then suspended in a culture medium consisting of a basal Eagle medium (B-D Merieux) admixed with 20 % of serum of foetal calf (Flow Laboratories) and with 100 U/ml of penicillin and of 50 μg/ml of streptomicin. They are distributed at the rate of 5×10^6 cells per dish into Petri Falcon dishes of 35 mm in diameter wherein they will form a monocellular layer. They are cultivated at 37° C in a water-saturated atmosphere of air and of 5 % carbon dioxide CO2.
For the measurement of phagocytosis 48 hours cultures (experiments I, II, IV) or 72 hours cultures (experiments II, V) have been used. […] The volume of methanol added to each culture was equal to 10 μl except for experiment I (25 μl).

[2] = test system: oedema produced by crystals of urate in the hind paw of the rat; format: in vivo, Sprague Dawely female rats; conditions: for % of inhibition of edema / Difference in weight between left and right leg (Average ± standard deviation of mean term): three subcutaneous injections, 6 h after urate
Procedure: The anti-gout activity has also been studied "in vivo" with the rat by investigating the inhibition of oedema induced in the hind paw through local injection of sodium urate.
8 g of uric acid (puriss Fluka A.G. Buchs S.G.) were added to 1,600 ml of boiling water and the pH of the solution was adjusted to 7.4 with 20 % of sodium hydroxyde NaOH. The solution was heated up to 95° C and allowed to cool down to the room temperature of the laboratory while being slightly stirred for 7 to 8 hours. The crystals of sodium urate were recovered through filtration on a Buchner filter and air-dried. The formation of crystals was confirmed through microscopic examination.
Sprague Dawely female rats having an average weight of 200 g were used for this investigation.
The oedema was produced through injection into the plantar arch of the left hind foot or leg of 0.1 ml of a suspension of crystals of sodium urate in a physiological salt solution (100 mg/ml). An equal volume of saline solution was injected into the right foot or leg as a control.
Colchicine and the derivative in ethanolic solution were injected through the subcutaneous way.
Three injections with the same dose were carried out 0.2 and 4 hours after the injection of crystals of urate. The volume injected ranged from 3.5 to 6 ml/kg each time. The reference rats also received three injections of a solution containing the same concentration in ethanol.
Six hours after the injection of the crystals of urate, the rats were killed through decapitation, the hind legs were amputated at the ankle and weighed.

leucocytes from rats [3] = format: in vivo, Sprague Dawley SIV 50 he-rats; conditions: 2 mg/kg oral
Procedure: Blood (about 0.2 ml) obtained through puncture of the retro-orbital veinous sinus was collected under sterile conditions prior to the administration of the substances and 6 hours later.
Then one proceeded with carrying out a micro-culture of the leucocytes in the presence of phytohemagglutinin.

in vitro [4] = format: cell-based, human; conditions: human, leucocytes, read-out: % of dead cells
Procedure: The cytotoxicity has been investigated on human leucocytes by means of the viability test with Trypan blue.
a. In a first experimentation cultures of leucocytes of a voluntary […] were prepared and caused to undergo incubation with phytohemagglutinin (PHA) and with different concentrations of colchicine or of its derivative (C1 = 2.5 μg/ml of culture, C3 = 10 μg/ml, C5 = 30 μg/ml, C6 = 50 μg/ml). Leucocytes only containing PHA served as controls.
After 3, 42, 68 and 72 hours of incubation a sample of each culture was contacted by a drop of Trypan blue and laid on a slide of a microscope. Then took place the counting of the dead cells (those with assumed an […] colour) and of all the cells present on the slide in order to obtain the ratio of the number of dead cells to the total number of cells. The results expressed as a rate in per cent are shown in the accompanying table 8.
b. After the experimentation which has just been described, the study of cytotoxicity has been continued with two other samples of human leucocytes still by means of the viability test with Trypan blue.
C1 = 2.5 μg/ml of culture
C6 = 50 μg/ml of culture;
and for the carboxy-1-adamantane fraction to:
C3 = 4.5 μg/ml of culture
C6 = 22.5 μg/ml of culture.
Leucocytes only containing phytohemagglutinin and others containing phytohemagglutinin and 50 μl of methanol served as controls.
The percentage of dead cells was determined after different numbers of hours of incubation.

human leucocytes [5] = test system: human leucocytes
Procedure: Contrary to the previous experiment in which different volumes of a solution of a given concentration have been added, in this experiment the various concentrations were prepared through dilution of a concentrated solution in order to add a same volume of methanol to each culture.

human leucocytes [6] = conditions: 0.01 μg/ml to 10 μg/ml; up to 30 hours; no PHA
Procedure: (§1) The concentrations of colchicine and of the derivative were prepared through dilution of a concentrated solution in order to add a same volume of methanol to each culture.
The doses were the following:
C1 = 0.01 μg/ml of culture
C2 = 0.1 μg/ml of culture
C3 = 0.5 μg/ml of culture
C4 = 1.0 μg/ml of culture
C5 = 2.5 μg/ml of culture
C6 = 10.0 μg/ml of culture.
(§2) Samples of culture with or without addition of methanol served as references.

leucocytes from rats [7] = conditions: individual rat, 2 mg/kg oral
Procedure: (§3) These rats had been kept fasting from the evening before.
Two groups of rats served as references.
The first group consisted of rats which were given no substance. The second group consisted of rats which were given a same volume (7.5 ml/kg) of propylene glycol as that received by the treated animals.
(§4) During this experimentation a counting of the leucocytes as well as a leucocytic distribution were made before administration and 6 hours after administration of the substances. Moreover as a cytoxicity index, a measurement of the viability of leucocytes obtained 6 hours after administration was carried out by means of the staining test with Trypan blue.

leucocytes from rats [8] = conditions: individual rat, 2 mg/kg oral; remark: listed apart in the source
Procedure: as §3, §4

leucocytes from rats [9] = conditions: 6 hours after administration, 2 mg/kg oral
Procedure: as §3, §4

in vitro [10] = conditions: human, leucocytes, % of dead cells (Average of 2 determinations), no PHA
Procedure: as §1
The doses were the following:
C1 = 0.01 μg/ml of culture
C2 = 0.1 μg/ml of culture
C3 = 0.5 μg/ml of culture
C4 = 1.0 μg/ml of culture
C5 = 2.5 μg/ml of culture
C6 = 10.0 μg/ml of culture.
as §2

[11] = 6 hours after administration, individual rat, 2 mg/kg
[12] = before administration, individual rat, 2 mg/kg
[13] = first experimentation, C1 = 2.5 μg/ml
[14] = first experimentation, C3 = 10 μg/ml
[15] = first experimentation, C5 = 30 μg/ml

COc1cc2c(c(OC)c1OC)-c1ccc(SC)c(=O)cc1C(NC(=O)C13CC4CC(CC(C4)C1)C3)CC2 (single isomer, unassigned) [Derivative, N-desacetyl-N-adamantoyl-thiocolchicine]
inhibition of phagocytosis ([1]; 0.004 μg): 10% | % phagocytosis with respect to controls (= 100%) ([1]; 0.004 μg, Experimentation III): 93.8% | % phagocytosis with respect to controls (= 100%) ([1]; 0.004 μg, Experimentation IV): 85.8% | % phagocytosis with respect to controls (= 100%) ([1]; 0.04 μg, Experimentation III): 84.5% | % phagocytosis with respect to controls (= 100%) ([1]; 0.04 μg, Experimentation IV): 85.9% | % phagocytosis with respect to controls (= 100%) ([1]; 0.04 μg, Experimentation V): 89.9% | % phagocytosis with respect to controls (= 100%) ([1]; 0.4 μg, Experimentation III): 72.8% | % phagocytosis with respect to controls (= 100%) ([1]; 0.4 μg, Experimentation IV): 77.6% | % phagocytosis with respect to controls (= 100%) ([1]; 0.4 μg, Experimentation V): 76.2% | inhibition of phagocytosis ([1]; 4 μg): 65% | % phagocytosis with respect to controls (= 100%) ([1]; 4 μg, Experimentation II): 22.5% | % phagocytosis with respect to controls (= 100%) ([1]; 4 μg, Experimentation III): 33.1% | % phagocytosis with respect to controls (= 100%) ([1]; 4 μg, Experimentation IV): 42.5% | % phagocytosis with respect to controls (= 100%) ([1]; 4 μg, Experimentation V): 39.3% | % phagocytosis with respect to controls (= 100%) ([1]; 5 μg, Experimentation II): 25.9% | % phagocytosis with respect to controls (= 100%) ([1]; 10 μg, Experimentation II): 25.5% | % phagocytosis with respect to controls (= 100%) ([1]; 12.5 μg, Experimentation I): 46.2% | % phagocytosis with respect to controls (= 100%) ([1]; 20 μg, Experimentation II): 31.3% | % phagocytosis with respect to controls (= 100%) ([1]; 30 μg, Experimentation II): 31.1% | % phagocytosis with respect to controls (= 100%) ([1]; 40 μg, Experimentation II): 31.0% | % phagocytosis with respect to controls (= 100%) ([1]; 40 μg, Experimentation III): 43.7% | % phagocytosis with respect to controls (= 100%) ([1]; 40 μg, Experimentation IV): 48.4% | inhibition of phagocytosis of the red blood-corpuscles by the macrophages (in words) ([1]; compared with colchicine): will inhibit phagocytosis of the red blood-corpuscles by the macrophages nearly as colchicine would do | % of inhibition of edema ([2]; 2 mg/kg): 10% | Difference in weight between left and right leg (Average ± standard deviation of mean term) ([2]; 2 mg/kg): 0.264 ± 0.031 g | % of inhibition of edema ([2]; 6 mg/kg): 50% | Difference in weight between left and right leg (Average ± standard deviation of mean term) ([2]; 6 mg/kg): 0.145 ± 0.019 g | protection against the oedema produced by crystals of urate (in words) ([2]; colchicine 2 mg/kg, derivative 6 mg/kg): significant protection | embodied radioactivity, mean (leucocytes from rats [3]; 6 hours after administration, group mean): 10,664±2,087 cpm | cpm / number of lymphocytes, mean (leucocytes from rats [3]; 6 hours after administration, group mean, factor and spread printed on following lines): 4.71 × 10^-^2 cpm/number of lymphoc | Number of lymphocytes/culture (leucocytes from rats [3]; [11]): 172,500 lymphocytes/culture and 244,760 lymphocytes/culture and 261,900 lymphocytes/culture | embodied radioactivity (leucocytes from rats [3]; [11]): 8,466 cpm and 8,690 cpm and 14,836 cpm | cpm / number of lymphocytes (immunity response) (leucocytes from rats [3]; 6 hours after administration, individual rat, factor × 10^-^2, 2 mg/kg): 4.91 × 10^-^2 cpm/number of lymphoc and 3.55 × 10^-^2 cpm/number of lymphoc and 5.66 × 10^-^2 cpm/number of lymphoc | embodied radioactivity, mean (leucocytes from rats [3]; before administration, group mean): 12,227±2,228 cpm | Number of lymphocytes/culture (leucocytes from rats [3]; [12]): 132,480 lymphocytes/culture and 147,000 lymphocytes/culture and 271,460 lymphocytes/culture and 257,060 lymphocytes/culture | embodied radioactivity (leucocytes from rats [3]; [12]): 7,384 cpm and 10,195 cpm and 7,709 cpm and 13,619 cpm | cytotoxicity at 4 h (in vitro [4]; Culture I, C3 = 10 μg/ml): 15% | cytotoxicity at 4 h (in vitro [4]; Culture I, C6 = 50 μg/ml): 17% | cytotoxicity at 22 h (in vitro [4]; Culture I, C3 = 10 μg/ml): 12% | cytotoxicity at 22 h (in vitro [4]; Culture I, C6 = 50 μg/ml): 22% | cytotoxicity at 46 h (in vitro [4]; Culture I, C3 = 10 μg/ml): 42% | cytotoxicity at 46 h (in vitro [4]; Culture I, C6 = 50 μg/ml): 53% | cytotoxicity at 76 h (in vitro [4]; Culture I, C3 = 10 μg/ml): 40% | cytotoxicity at 76 h (in vitro [4]; Culture I, C6 = 50 μg/ml): 62% | cytotoxicity at 23 h (in vitro [4]; Culture II, C1 = 2.5 μg/ml): 8% | cytotoxicity at 23 h (in vitro [4]; Culture II, C3 = 10 μg/ml): 11% | cytotoxicity at 23 h (in vitro [4]; Culture II, C5 = 30 μg/ml): 16% | cytotoxicity at 46 h (in vitro [4]; Culture II, C1 = 2.5 μg/ml): 4% | cytotoxicity at 46 h (in vitro [4]; Culture II, C3 = 10 μg/ml): 13% | cytotoxicity at 46 h (in vitro [4]; Culture II, C5 = 30 μg/ml): 22% | cytotoxicity at 72 h (in vitro [4]; Culture II, C1 = 2.5 μg/ml): 26% | cytotoxicity at 72 h (in vitro [4]; Culture II, C3 = 10 μg/ml): 41% | cytotoxicity at 72 h (in vitro [4]; Culture II, C5 = 30 μg/ml): 43% | cytotoxicity at 72 h (in vitro [4]; Culture II, C6 = 50 μg/ml, *x/x = 2 different tubes): 61% | cytotoxicity at 3 h (in vitro [4]; [13]): 0% | cytotoxicity at 3 h (in vitro [4]; [14]): 0% | cytotoxicity at 3 h (in vitro [4]; [15]): 0% | cytotoxicity at 42 h (in vitro [4]; [13]): 5% | cytotoxicity at 42 h (in vitro [4]; [14]): 7% | cytotoxicity at 42 h (in vitro [4]; [15]): 23% | cytotoxicity at 42 h (in vitro [4]; first experimentation, C6 = 50 μg/ml): 32% | cytotoxicity at 68 h (in vitro [4]; [13]): 5% | cytotoxicity at 68 h (in vitro [4]; [14]): 9% | cytotoxicity at 68 h (in vitro [4]; [15]): 20% | cytotoxicity at 72 h (in vitro [4]; [13]): 9% | cytotoxicity at 72 h (in vitro [4]; [14]): 12% | cytotoxicity at 72 h (in vitro [4]; [15]): 35% | number of leucocytes with increasing amounts (in words) (human leucocytes [5]; Table 9, 72 hours): still further lowered with the same amounts of the derivative | Count of leucocytes after 72 hours (human leucocytes [5]; Table 9, C1 = 2.5 μg/ml, control 412,500): 487,000 | Count of leucocytes after 72 hours (human leucocytes [5]; Table 9, C3 = 10 μg/ml, control 412,500): 360,000 | Count of leucocytes after 72 hours (human leucocytes [5]; Table 9, C5 = 30 μg/ml, control 412,500): 180,000 | Count of leucocytes after 72 hours (human leucocytes [5]; Table 9, C6 = 50 μg/ml, control 412,500): 157,000 | Count of leucocytes after 72 hours (human leucocytes [5]; Table 11, Culture I, C3 = 10 μg/ml): 430,000 | Count of leucocytes after 72 hours (human leucocytes [5]; Table 11, Culture I, C6 = 50 μg/ml): 515,000 | Count of leucocytes after 72 hours (human leucocytes [5]; Table 11, Culture II, C1 = 2.5 μg/ml): 140,000 | Count of leucocytes after 72 hours (human leucocytes [5]; Table 11, Culture II, C3 = 10 μg/ml): 200,000 | Count of leucocytes after 72 hours (human leucocytes [5]; Table 11, Culture II, C5 = 30 μg/ml): 245,000 | Count of leucocytes after 72 hours (human leucocytes [5]; Table 11, Culture II, C6 = 50 μg/ml (two values given)): 290,000 and 345,000 | number of leucocytes in absence or presence of substance (in words) (human leucocytes [5]; Table 11, very approximative): remain substantially the same | cytotoxicity (in words) (human leucocytes [6]): no cytotoxicity is detectable | Leucocytes / mm^3 (leucocytes from rats [7]; experiment 1, 6 hours after administration, 2 mg/kg): 9,050 / mm^3 and 8,450 / mm^3 and 9,350 / mm^3 | Leucocytes / mm^3 (leucocytes from rats [7]; experiment 1, before administration, 2 mg/kg): 9,050 / mm^3 and 12,250 / mm^3 and 17,525 / mm^3 | Leucocytes / mm^3 (leucocytes from rats [7]; experiment 2, 6 hours after administration): 5,400 / mm^3 | Leucocytes / mm^3 (leucocytes from rats [7]; experiment 2, before administration, 2 mg/kg): 5,900 / mm^3 and 9,350 / mm^3 | Leucocytes / mm^3 (leucocytes from rats [7]; experiment 3, 6 hours after administration): 13,500 / mm^3 | Leucocytes / mm^3 (leucocytes from rats [7]; experiment 3, before administration, 2 mg/kg): 13,250 / mm^3 and 7,200 / mm^3 | Basophils (leucocytes from rats [8]; 6 hours after administration): 0 | Eosinophils (leucocytes from rats [8]; 6 hours after administration): 0 | Lymphocytes (leucocytes from rats [8]; 6 hours after administration, 2 mg/kg): 94 and 82 and 86 | Basophils (leucocytes from rats [8]; before administration): 0 | Eosinophils (leucocytes from rats [8]; before administration): 0 | Lymphocytes (leucocytes from rats [8]; before administration, 2 mg/kg): 84 and 90 and 82 | Monocytes (leucocytes from rats [8]; before administration, 2 mg/kg): 2 and 1 | Neutrophils with segmented nucleus (leucocytes from rats [8]; before administration, 2 mg/kg): 12 and 8 | cytotoxic effect (in words) (leucocytes from rats [9]): no cytotoxic effect has been noticed | % of dead cells (leucocytes from rats [9]; individual rat, 2 mg/kg, 360 min): 2% and 1% and 0% | cytotoxicity at 6 h (in vitro [10]; C1 = 0.01 μg/ml): 1% | cytotoxicity at 6 h (in vitro [10]; C2 = 0.1 μg/ml): 1% | cytotoxicity at 6 h (in vitro [10]; C3 = 0.5 μg/ml): 0% | cytotoxicity at 6 h (in vitro [10]; C4 = 1.0 μg/ml): 1% | cytotoxicity at 6 h (in vitro [10]; C5 = 2.5 μg/ml): 1% | cytotoxicity at 6 h (in vitro [10]; C6 = 10.0 μg/ml): 1% | cytotoxicity at 30 h (in vitro [10]; C1 = 0.01 μg/ml): 64% | cytotoxicity at 30 h (in vitro [10]; C2 = 0.1 μg/ml): 54% | cytotoxicity at 30 h (in vitro [10]; C3 = 0.5 μg/ml): 50% | cytotoxicity at 30 h (in vitro [10]; C4 = 1.0 μg/ml): 49% | cytotoxicity at 30 h (in vitro [10]; C5 = 2.5 μg/ml): 45% | cytotoxicity at 30 h (in vitro [10]; C6 = 10.0 μg/ml): 67% | cytotoxicity at 48 h (in vitro [10]; C1 = 0.01 μg/ml): 93% | cytotoxicity at 48 h (in vitro [10]; C2 = 0.1 μg/ml): 95% | cytotoxicity at 48 h (in vitro [10]; C3 = 0.5 μg/ml): 91% | cytotoxicity at 48 h (in vitro [10]; C4 = 1.0 μg/ml): 94% | cytotoxicity at 48 h (in vitro [10]; C5 = 2.5 μg/ml): 88% | cytotoxicity at 48 h (in vitro [10]; C6 = 10.0 μg/ml): 91%

— patent US3997506A (priority 1974, dated 1976)
